The source of these data is patent publication US20100240924A1, “2-ETHYL-4,6-DIMETHYL-PHENYL-SUBSTITUTED TETRAMIC ACID DERIVATIVES AS PEST CONTROL AGENTS AND/OR HERBICIDES” (BAYER CROPSCIENCE AG, priority 2003, published 2010).

In data set [1] the test system is larvae of the mustard beetle (Phaedon cochleariae). Nature of the data set: Phaedon test (spray treatment). Type of data set: in vivo. Conditions: 500 g/ha, spray treatment of Chinese cabbage discs. The protocol: [table] To produce a suitable preparation of active compound, 1 part by weight of active compound is mixed with the stated amounts of solvents and emulsifier, and the concentrate is diluted with emulsifier-containing water to the desired concentration. Discs of Chinese cabbage (Brassica pekinensis) are sprayed with a preparation of active compound of the desired concentration and, after they have dried, populated with larvae of the mustard beetle (Phaedon cochleariae).

In data set [2] the test system is greenhouse red spider mite (Tetranychus urticae). Nature of the data set: Tetranychus test (OP-resistant/spray treatment). The data set is classed as in vivo. The settings on record: 100 g/ha, OP-resistant, spray treatment of bean leaf discs. The method, then:
To produce a suitable preparation of active compound, 1 part by weight of active compound is mixed with the stated amounts of solvents and emulsifier, and the concentrate is diluted with emulsifier-containing water to the desired concentration.
Discs of bean leaves (Phaseolus vulgaris) which are infested by all stages of the greenhouse red spider mite (Tetranychus urticae) are sprayed with a preparation of active compound of the desired concentration.
After the desired period of time, the activity in % is determined. 100% means that all spider mites have been killed; 0% means that none of the spider mites have been killed.

The next data set has as its system Avena sativa. Nature of the data set: Herbicidal post-emergence action (Example A, greenhouse). Type of data set: in vivo. Conditions: 320 g of a.i./ha. The protocol:
(§1) Seeds of monocotyledonous and dicotyledonous weed and crop plants are placed into sandy loam in wood fibre pots, covered with soil and cultivated in a greenhouse under good growth conditions. 2-3 weeks after sowing, the test plants are treated at the one-leaf stage. The test compounds, formulated as wettable powders (WP), are, in various dosages with a water application rate of. 600 l/ha (converted), with 0.2% of wetting agent added, sprayed onto the green parts of the plants. After the test plants were kept in the greenhouse under optimum growth conditions for about 3 weeks, the effect of the preparations is rated visually in comparison to untreated controls (herbicidal effect in percent (%): 100% effect=the plants have died, 0% effect=like control plants).

The test system of a further data set is Lolium. The description is as above. Conditions: 320 g of a.i./ha. The data set is classed as in vivo. The method, then:
as §1

For the next data set, the system named is Setaria. The description is as above. The data set is classed as in vivo. The settings on record: 320 g of a.i./ha. The protocol: as §1
For another data set, the system named is Sinapis. The description is as above. Type of data set: in vivo. The settings on record: 320 g of a.i./ha, rated visually after about 3 weeks. The method, then: as §1
A further data set relates to Stellaria. The description is as above. The data set is classed as in vivo. Conditions: 320 g of a.i./ha, rated visually after about 3 weeks. The protocol:
as §1

For the next data set, the system named is Summer barley. Nature of the data set: Herbicidal post-emergence action, use of safeners, vessel trials with cereals in the greenhouse (Example B). Conditions: in vivo. The protocol:
(§2) Seeds of monocotyledonous and dicotyledonous weed and crop plants are placed into sandy loam in wood fibre pots or in plastic pots, covered with soil and cultivated in a greenhouse, during the vegetation period also outdoors outside of the greenhouse, under good growth conditions. 2-3 weeks after sowing, the test plants are treated at the one- to three-leaf stage. The test compounds, formulated as wettable powders (WP) or emulsifiable concentrates (EC) are, in various dosages with a water application rate of 300 l/ha (converted), with wetting agent (0.2 to 0.3%) added, sprayed onto the plants and the surface of the soil. 3-4 weeks after the treatment of the test plants, the effect of the preparations is rated visually in comparison to untreated controls (herbicidal effect in percent (%): 100% effect=the plants have died, 0% effect=like control plants). […]

The next data set has as its system Summer wheat. Described as above. The settings on record: in vivo. The protocol: as §2
[3] abbreviates: rated visually after about 3 weeks.
Setting [4] is: rated visually after about 3 weeks (second table).

With `CCc1cc(C)cc(C)c1C1=C(OC(=O)C(C)C)C(C)(C2CC2)NC1=O` (centres unmarked) [Example I-b-10], the “Kill rate in % after 5 d” value in data set [1] stood at 100%; in data set [2], 90%.

On to `CCOC(=O)OC1=C(c2c(C)cc(C)cc2CC)C(=O)NC1(C)C(C)C` (centres unmarked) [Example I-c-3], for which the “herbicidal effect in percent, Avena sativa” value with Avena sativa (setting [3]) stood at 90%. In addition, the “herbicidal effect in percent, Lolium” value in the data set on Lolium (setting [3]) was 100%. In addition, the “herbicidal effect in percent, Setaria” value in the data set on Setaria (setting [3]) came to 90%.

For the compound `CCc1cc(C)cc(C)c1C1=C(OC(=O)C(C)C)C(C)(C)NC1=O` [Example I-b-2], the “herbicidal effect in percent, Avena sativa” value in the data set on Avena sativa (setting [4]) is 100%. In addition, the “herbicidal effect in percent, Lolium” value in the data set on Lolium (setting [4]) came to 100%. In the data set with Setaria (setting [4]), the “herbicidal effect in percent, Setaria” value turned out to be 100%. Moreover, the “herbicidal effect in percent, Sinapis” value with Sinapis is reported as 70%. For the same compound, in the data set on Stellaria, the “herbicidal effect in percent, Stellaria” value is 80%.

For `CCc1cc(C)cc(C)c1C1=C(O)C(C)(C(C)C)NC1=O` (centres unmarked) [I-a′-2], the “Summer barley observed (%)” value with Summer barley is 20%. In addition, the “Summer wheat observed (%)” value with Summer wheat came out at 25%.

`CCc1cc(C)cc(C)c1C1=C(O)C(C)N(CC)C1=O` (centres unmarked) [Example I-a-1]: the “herbicidal effect in percent, Avena sativa” value with Avena sativa (setting [3]) was found to be 80%. Moreover, the “herbicidal effect in percent, Lolium” value with Lolium (setting [3]) came to 100%. Besides, the “herbicidal effect in percent, Setaria” value in the data set on Setaria (setting [3]) is 90%.

`CCc1cc(C)cc(C)c1C1=C(O)CN(C2CC2)C1=O` [I-a-3]: the “herbicidal effect in percent, Avena sativa” value in the data set with Avena sativa (setting [4]) is recorded as 80%. In addition, the “herbicidal effect in percent, Lolium” value in the data set on Lolium (setting [4]) stood at 100%. The “herbicidal effect in percent, Setaria” value with Setaria (setting [4]) was 90%. The “herbicidal effect in percent, Sinapis” value in the data set with Sinapis was determined as 70%.

As to `CCOC(=O)OC1=C(c2c(C)cc(C)cc2CC)C(=O)NC1(C)C` [I-c-2], the “herbicidal effect in percent, Avena sativa” value in the data set with Avena sativa (setting [4]) is on record as 100%. The “herbicidal effect in percent, Lolium” value in the data set with Lolium (setting [4]) was 100%. Besides, the “herbicidal effect in percent, Setaria” value in the data set with Setaria (setting [4]) is 100%. Also, in the data set with Sinapis, the “herbicidal effect in percent, Sinapis” value was found to be 70%. Moreover, the “herbicidal effect in percent, Stellaria” value in the data set on Stellaria is 70%.

Regarding `CCOC(=O)OC1=C(c2c(C)cc(C)cc2CC)C(=O)N(CC)C1C` (centres unmarked) [Example I-c-1], the “herbicidal effect in percent, Avena sativa” value in the data set with Avena sativa (setting [3]) worked out at 90%. The “herbicidal effect in percent, Lolium” value in the data set on Lolium (setting [3]) was found to be 100%. Further, the “herbicidal effect in percent, Setaria” value in the data set on Setaria (setting [3]) stood at 100%.

For the compound `CCc1cc(C)cc(C)c1C1=C(OC(=O)C(C)(C)C)C(C)(C(C)C)NC1=O` (centres unmarked) [I-b-3], the “herbicidal effect in percent, Avena sativa” value in the data set with Avena sativa (setting [3]) turned out to be 90%. Also, the “herbicidal effect in percent, Lolium” value with Lolium (setting [3]) amounted to 70%. In the data set on Setaria (setting [3]), the “herbicidal effect in percent, Setaria” value worked out at 80%.

With `CCc1cc(C)cc(C)c1C1=C(OC(=O)C(C)C)C(CC)(CC)NC1=O` [Example I-b-18], the “Kill rate in % after 5 d” value in data set [1] and in data set [2] was 100% in each case.
